US9365540B2, “Benzimidazole derivatives as MCH receptor antagonists” (Takeda Pharmaceutical Company Limited, priority 2012, dated 2016)

These molecules were tested against T1, human MCH receptor 1 (MCHR1) (Homo sapiens, UniProt Q99705) (assay: human MCH receptor 1 (MCHR1) competitive binding assay with [125I]-MCH(4-19)). Settings: test compound 0.1 μM, human MCHR1-expressing CHO cell membrane fraction, 0.1 µM.
T1 construct: expressed in transfected cells; host or cells: CHO cell clone 57 (membrane fraction)
T1 sequence (Q99705 whole entry): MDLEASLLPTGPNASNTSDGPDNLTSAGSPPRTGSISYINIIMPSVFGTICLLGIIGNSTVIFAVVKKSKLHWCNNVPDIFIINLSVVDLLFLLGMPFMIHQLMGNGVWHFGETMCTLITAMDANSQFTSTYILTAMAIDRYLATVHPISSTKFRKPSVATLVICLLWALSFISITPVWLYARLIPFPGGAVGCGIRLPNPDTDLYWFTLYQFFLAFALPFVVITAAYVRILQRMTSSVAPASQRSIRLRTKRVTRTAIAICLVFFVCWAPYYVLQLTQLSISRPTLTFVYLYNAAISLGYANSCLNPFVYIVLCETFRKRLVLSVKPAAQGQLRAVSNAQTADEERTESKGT
Procedure: Determination of human MCH receptor 1 (MCHR1) competitive inhibitory activity of test compound using binding assay
1. Preparation of Membrane Fraction
Using human MCHR1 (=SLC-1 receptor)-expressing CHO cell clone 57 described in WO01/82925, MCHR1-expressing CHO cell membrane fractions were prepared by the following method.
In phosphate buffered saline (pH 7.4) supplemented with 5 mM EDTA (ethylenediaminetetraacetic acid) were respectively suspended human MCHR1-expressing CHO cells (1×10^8 cells) and centrifuged. Homogenate buffer (10 mL, 10 mM NaHCO3, 5 mM EDTA, pH 7.5, 0.5 mM PMSF (phenylmethylsulfonyl fluoride), 20 mg/L leupeptin, 4 mg/L E-64, 1 mg/L pepstatin A) was added to the pellets of the cells and, using Polytron Homogenizer, the mixture was homogenated. The supernatant obtained after centrifugation at 400×g for 10 min was further centrifuged at 100,000×g for 1 hr to give precipitate of the membrane fraction. The precipitate were suspended in 2 mL of assay buffer [20 mM Tris-HCl (pH 7.5), 5 mM EDTA, 0.5 mM PMSF, 20 mg/L leupeptin, 4 mg/L E-64, 1 mg/L pepstatin A]. The membrane fractions were suspended in assay buffer to a protein concentration of 2 mg/mL, and after dispensing, preserved at −80° C. and used upon thawing each time when in use.
The MCHR1 ligand binding inhibitory activity of the test compound was determined as follows.
An MCHR1-expressing CHO cell membrane fraction (173 μL) diluted with an assay buffer was dispensed to a 96 well polypropylene plate (3363, Corning). DMSO solution (2 μL), 33 μM cold MCH(1-19) diluted with DMSO solution (2 μL), or a test compound solution diluted with DMSO solution to various concentrations (2 μL) was added, and lastly, [^125I]-MCH (4-19) diluted with assay buffer (hereinafter, sometimes to be referred to as “hot MCH”, 25 μL) was added to each well. The mixture was reacted with stirring at room temperature for 1 hr, and the plate was set on FilterMate Harvester (PerkinElmer). Using a treating glass filter plate (GF/C, PerkinElmer) with polyethyleneimine, which had been previously set, the plate was suction-filtered and washed three times with washing buffer (50 mM Tris-HCl buffer pH 7.5). The glass filter plate was dried, MicroScinti0 (PerkinElmer) was added at 25 μL/well, and the resulting radioactivity was measured by TopCount liquid scintillation counter (PerkinElmer). The binding inhibition rate of the test compound was calculated by the following formula. Binding inhibition (%)=100−(radioactivity upon addition of test compound and hot MCH−radioactivity upon addition of cold MCH and hot MCH solution)/(radioactivity upon addition of DMSO solution and hot MCH−radioactivity upon addition of cold MCH and hot MCH solution)×100
The binding inhibition rates (%) of test compounds (0.1 μM) as measured using human MCHR1-expressing CHO cell are shown in Table 2.
`Cn1c([C@H]2C[C@@H]2F)nc2ccc(-n3ccc(OCc4ccc(Cl)cc4)cc3=O)cc21` (racemic) [Example 137, 4-((4-Chlorobenzyl)oxy)-1-(2-((1RS,2SR)-2-fluorocyclopropyl)-1-methyl-1H-benzimidazol-6-yl)pyridin-2(1H)-one] was tested, and the “Binding inhibition rate % (0.1 μM)” value was 68%.
`CCc1nc2ccc(-n3ccc(OCc4ccccc4)cc3=O)cc2n1C` [Example 47, 4-(Benzyloxy)-1-(2-ethyl-1-methyl-1H-benzimidazol-6-yl)pyridin-2(1H)-one] was tested, and the “Binding inhibition rate % (0.1 μM)” value was 62%.

Same assay, conditions: test compound 0.1 μM, human MCHR1-expressing CHO cell membrane fraction, read-out: Binding inhibition rate % (0.1 μM)
Work on `Cn1c([C@H]2C[C@H]2F)nc2ccc(-n3ccc(OCc4ccc(Cl)cc4)cc3=O)cc21` (racemic) [Example 136, 4-((4-Chlorobenzyl)oxy)-1-(2-((1RS,2RS)-2-fluorocyclopropyl)-1-methyl-1H-benzimidazol-6-yl)pyridin-2(1H)-one] yielded an inhibition at 0.1 µM of 69%.
`Cn1c([C@@H]2C[C@@H]2CO)nc2ccc(-n3ccc(OCc4ccc(Cl)cc4)cc3=O)cc21` (racemic) [Example 149, 4-((4-Chlorobenzyl)oxy)-1-(2-((1RS,2SR)-2-(hydroxymethyl)cyclopropyl)-1-methyl-1H-benzimidazol-6-yl)pyridin-2(1H)-one] gave an inhibition at 0.1 µM of 55%.
`Cn1c([C@@H]2C[C@@H]2C(C)(C)O)nc2ccc(-n3ccc(OCc4ccccc4)cc3=O)cc21` (racemic) [Example 152, 4-(Benzyloxy)-1-(2-((1RS,2SR)-2-(2-hydroxypropan-2-yl)cyclopropyl)-1-methyl-1H-benzimidazol-6-yl)pyridin-2(1H)-one] gave an inhibition at 0.1 µM of 75%.
For `Cn1c([C@@H]2C[C@@H]2C(C)(C)F)nc2ccc(-n3ccc(OCc4ccccc4)cc3=O)cc21` (racemic) [Example 155, 4-(Benzyloxy)-1-(2-((1RS,2SR)-2-(2-fluoropropan-2-yl)cyclopropyl)-1-methyl-1H-benzimidazol-6-yl)pyridin-2(1H)-one], the inhibition at 0.1 µM was 54%.
With `Cn1c([C@@H]2C[C@@H]2C(C)(C)O)nc2ccc(-n3ccc(OCc4ccc(Cl)s4)cc3=O)cc21` (racemic) [Example 203, 4-((5-Chloro-2-thienyl)methoxy)-1-(2-((1RS,2SR)-2-(2-hydroxypropan-2-yl)cyclopropyl)-1-methyl-1H-benzimidazol-6-yl)pyridin-2(1H)-one] the inhibition at 0.1 µM was 91%.
`Cn1c([C@@H]2C[C@@H]2C(C)(C)O)nc2ccc(-n3ccc(OCc4ccc(Cl)cn4)cc3=O)cc21` (racemic) [Example 204, 4-((5-Chloropyridin-2-yl)methoxy)-1-(2-((1RS,2SR)-2-(2-hydroxypropan-2-yl)cyclopropyl)-1-methyl-1H-benzimidazol-6-yl)pyridin-2(1H)-one] gave an inhibition at 0.1 µM of 67%.
Molecule `Cn1c([C@@H]2C[C@@H]2C(C)(C)O)nc2ccc(-n3ccc(OCc4ccc(F)cc4)cc3=O)cc21` (racemic) [Example 205, 4-((4-Fluorobenzyl)oxy)-1-(2-((1RS,2SR)-2-(2-hydroxypropan-2-yl)cyclopropyl)-1-methyl-1H-benzimidazol-6-yl)pyridin-2(1H)-one] has an inhibition at 0.1 µM of 76%.
`CCC(O)(CC)[C@H]1C[C@H]1c1nc2ccc(-n3ccc(OCc4ccc(Cl)cc4)cc3=O)cc2n1C` (racemic) [Example 206, 4-((4-Chlorobenzyl)oxy)-1-(2-((1RS,2SR)-2-(3-hydroxypentan-3-yl)cyclopropyl)-1-methyl-1H-benzimidazol-6-yl)pyridin-2(1H)-one] showed an inhibition at 0.1 µM of 95%.
In the case of `Cn1c([C@@H]2C[C@@H]2C(C)(C)O)nc2ccc(-n3ccc(OCc4ccc(F)c(F)c4)cc3=O)cc21` (racemic) [Example 212, 4-((3,4-Difluorobenzyl)oxy)-1-(2-((1RS,2SR)-2-(2-hydroxypropan-2-yl)cyclopropyl)-1-methyl-1H-benzimidazol-6-yl)pyridin-2(1H)-one], the inhibition at 0.1 µM is reported as 80%.
Work on `Cn1c([C@@H]2C[C@@H]2C(C)(C)O)nc2ccc(-n3ccc(OCc4csc(Cl)c4)cc3=O)cc21` (racemic) [Example 215, 4-((5-Chloro-3-thienyl)methoxy)-1-(2-((1RS,2SR)-2-(2-hydroxypropan-2-yl)cyclopropyl)-1-methyl-1H-benzimidazol-6-yl)pyridin-2(1H)-one] yielded an inhibition at 0.1 µM of 92%.
Work on `Cn1c([C@@H]2C[C@@H]2C(C)(C)O)nc2ccc(-n3ccc(OCc4ccc(Cl)c(F)c4)cc3=O)cc21` (racemic) [Example 220, 4-((4-Chloro-3-fluorobenzyl)oxy)-1-(2-((1RS,2SR)-2-(2-hydroxypropan-2-yl)cyclopropyl)-1-methyl-1H-benzimidazol-6-yl)pyridin-2(1H)-one] yielded an inhibition at 0.1 µM of 81%.
With `Cn1c([C@@H]2C[C@@H]2C(C)(C)O)nc2ccc(-n3ccc(OCc4ccc(F)c(Cl)c4)cc3=O)cc21` (racemic) [Example 222, 4-((3-Chloro-4-fluorobenzyl)oxy)-1-(2-((1RS,2SR)-2-(2-hydroxypropan-2-yl)cyclopropyl)-1-methyl-1H-benzimidazol-6-yl)pyridin-2(1H)-one] the inhibition at 0.1 µM was 80%.
In the case of `Cn1c([C@@H]2CC[C@@H]2C(C)(C)O)nc2ccc(-n3ccc(OCc4ccc(Cl)cc4)cc3=O)cc21` (racemic) [Example 223, 4-((4-Chlorobenzyl)oxy)-1-(2-((1RS,2SR)-2-(2-hydroxypropan-2-yl)cyclobutyl)-1-methyl-1H-benzimidazol-6-yl)pyridin-2(1H)-one], the inhibition at 0.1 µM is reported as 60%.
For `Cc1c(C2CC2)nc2ccc(-n3ccc(OCc4ccc(C(F)(F)F)cc4)cc3=O)cn12` [Example 5, 1-(2-Cyclopropyl-3-methylimidazo[1,2-a]pyridin-6-yl)-4-((4-(trifluoromethyl)benzyl)oxy)pyridin-2(1H)-one], the inhibition at 0.1 µM was 58%.
For `CCn1c(C2CC2)nc2ccc(-n3ccc(OCc4ccc(F)cc4)cc3=O)cc21` [Example 20, 1-(2-Cyclopropyl-1-ethyl-1H-benzimidazol-6-yl)-4-((4-fluorobenzyl)oxy)pyridin-2(1H)-one], the inhibition at 0.1 µM was 59%.
With `CCn1c(C2CC2)nc2ccc(-n3ccc(OCc4ccc(Cl)cc4)cc3=O)cc21` [Example 21, 4-((4-Chlorobenzyl)oxy)-1-(2-cyclopropyl-1-ethyl-1H-benzimidazol-6-yl)pyridin-2(1H)-one] the inhibition at 0.1 µM was 76%.
Work on `Cc1c(C2CC2)nc2ccc(-n3ccc(OCc4ccc(F)cc4F)cc3=O)cn12` [Example 22, 1-(2-Cyclopropyl-3-methylimidazo[1,2-a]pyridin-6-yl)-4-((2,4-difluorobenzyl)oxy)pyridin-2(1H)-one] yielded an inhibition at 0.1 µM of 81%.
For `Cc1nc2ccc(-n3ccc(OCc4ccc(Cl)cc4)cc3=O)cn2c1C` [Example 25, 4-((4-Chlorobenzyl)oxy)-1-(2,3-dimethylimidazo[1,2-a]pyridin-6-yl)pyridin-2(1H)-one], the inhibition at 0.1 µM was 58%.
Work on `CCCn1c(C2CC2)nc2ccc(-n3ccc(OCc4ccc(Cl)cc4)cc3=O)cc21` [Example 27, 4-((4-Chlorobenzyl)oxy)-1-(2-cyclopropyl-1-propyl-1H-benzimidazol-6-yl)pyridin-2(1H)-one] yielded an inhibition at 0.1 µM of 55%.
`Cc1c(C2CC2)nc2ccc(-n3ccc(OCc4ccc(Cl)cn4)cc3=O)cn12` [Example 32, 4-((5-Chloropyridin-2-yl)methoxy)-1-(2-cyclopropyl-3-methylimidazo[1,2-a]pyridin-6-yl)pyridin-2(1H)-one] gave an inhibition at 0.1 µM of 83%.
With `Cc1csc(COc2ccn(-c3ccc4nc(C5CC5)n(C)c4c3)c(=O)c2)c1` [Example 56, 1-(2-Cyclopropyl-1-methyl-1H-benzimidazol-6-yl)-4-((4-methyl-2-thienyl)methoxy)pyridin-2(1H)-one] the inhibition at 0.1 µM was 61%.
With `COc1ccc(COc2ccn(-c3ccc4nc(C5CC5)n(C)c4c3)c(=O)c2)cc1` [Example 77, 1-(2-Cyclopropyl-1-methyl-1H-benzimidazol-6-yl)-4-((4-methoxybenzyl)oxy)pyridin-2(1H)-one] the inhibition at 0.1 µM was 71%.
With `CC1CC1c1nc2ccc(-n3ccc(OCc4ccc(Cl)cc4)cc3=O)cc2n1C` (centres unmarked) [Example 90, 4-((4-Chlorobenzyl)oxy)-1-(1-methyl-2-(2-methylcyclopropyl)-1H-benzimidazol-6-yl)pyridin-2(1H)-one] the inhibition at 0.1 µM was 80%.
In the case of `Cn1c(C2CCC2)nc2ccc(-n3ccc(OCc4ccc(Cl)cc4)cc3=O)cc21` [Example 109, 4-((4-Chlorobenzyl)oxy)-1-(2-cyclobutyl-1-methyl-1H-benzimidazol-6-yl)pyridin-2(1H)-one], the inhibition at 0.1 µM is reported as 50%.
